Legend:
A2780 cells = assay: Test for induction of differentiation in A2780 cells (ALP activity, ALPmin); assay type: cell-based, human; conditions: Homo sapiens, 72 h; A2780 cells, 3 days incubation; minimum concentration of the drug inducing increase of ALP activity
Outline: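 A2780 cells seeded at 15,000/well, test compound added in serial dilution the next day. ALP reaction stopped with 3N NaOH and absorbance read at 405 nm; ALPmin is the lowest concentration raising ALP activity.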

For `Nc1ccccc1NC(=O)c1ccc(CNC(=O)c2ccc[nH]2)cc1` [Example 23, N-(2-aminophenyl)-4-[N-(pyrrol-2-yl)carbonylaminomethyl]benzamide], the minimal effective concentration (A2780 cells) was 1 µM and the melting point was 216 to 220 °C (dec.).

For `Nc1ccccc1NC(=O)c1ccc(CNC(=O)c2ccno2)cc1` [Example 25, N-(2-aminophenyl)-4-[N-(isoxazol-5-yl)carbonylaminomethyl]benzamide], the minimal effective concentration (A2780 cells) was 3 µM and the melting point was 183 to 185 °C (dec.).

Work on `Cc1cc(C(=O)NCc2ccc(C(=O)Nc3ccccc3N)cc2)sn1` [Example 26, N-(2-aminophenyl)-4-[N-(3-methylisothiazol-5-yl)carbonylaminomethyl]benzamide] yielded a minimal effective concentration (A2780 cells) of 1 µM and a melting point of 168 to 169 °C.

For `Nc1cccc(CC(=O)NCc2ccc(C(=O)Nc3ccccc3N)cc2)c1` [Example 28, N-(2-aminophenyl)-4-[N-(3-aminophenyl)acetylaminomethyl]benzamide], the minimal effective concentration (A2780 cells) was 10 µM and the melting point was 171 to 176 °C.

For `Nc1ccccc1NC(=O)c1ccc(CNC(=O)Cc2cccnc2)cc1` [Example 29, N-(2-aminophenyl)-4-[N-(pyridin-3-yl)acetylaminomethyl]benzamide], the minimal effective concentration (A2780 cells) was 10 µM and the melting point was 127 °C.

`Nc1ccccc1NC(=O)c1ccc(CNC(=O)CCc2cccnc2)cc1` [Example 30, N-(2-aminophenyl)-4-[N-[3-(pyridin-3-yl)propionyl]aminomethyl]benzamide] gave a minimal effective concentration (A2780 cells) of 0.1 µM and a melting point of 183 to 186 °C.

With `Nc1ccccc1NC(=O)c1ccc(CNC(=O)CCC(=O)c2cccnc2)cc1` [Example 31, N-(2-aminophenyl)-4-[N-[4-(pyridin-3-yl)-1,4-dioxobutyl]aminomethyl]benzamide] the minimal effective concentration (A2780 cells) was 10 µM and the melting point was 145 to 147 °C (dec.).

With `Nc1ccccc1NC(=O)c1ccc(CNC(=O)COc2cncc(Cl)c2)cc1` [Example 32, N-(2-aminophenyl)-4-[N-(5-chloropyridin-3-yl)oxyacetylaminomethyl]benzamide] the minimal effective concentration (A2780 cells) was 3 µM and the melting point was 199 to 201 °C.

`COc1ccc(N)c(NC(=O)c2ccc(CNC(=O)COc3cccnc3)cc2)c1` [Example 33, N-(2-amino-5-methoxyphenyl)-4-[N-(pyridin-3-yl)oxyacetylaminomethyl]benzamide] showed a minimal effective concentration (A2780 cells) of 0.3 µM and a melting point of 141 to 144 °C.

For `Nc1ccccc1NC(=O)c1ccc(CNC(=O)CC(=O)c2cccnc2)cc1` [Example 34, N-(2-aminophenyl)-4-[N-[3-(pyridin-3-yl)-1,3-dioxopropyl]aminomethyl]benzamide], the minimal effective concentration (A2780 cells) was 0.1 µM and the melting point was 204 to 206 °C.

For `Nc1ccccc1NC(=O)c1ccc(CNC(=O)c2ccc3ncccc3c2)cc1` [Example 37, N-(2-aminophenyl)-4-[N-(quinolin-6-yl)carbonylaminomethyl]benzamide], the minimal effective concentration (A2780 cells) was 1 µM and the melting point was 209 to 210 °C.

In the case of `Nc1ccccc1NC(=O)c1ccc(CNC(=O)c2cc3ncccc3o2)cc1` [Example 38, N-(2-aminophenyl)-4-[N-(furo[3,2-b]pyridin-2-yl)carbonylaminomethyl]benzamide], the minimal effective concentration (A2780 cells) is reported as 3 µM and the melting point is reported as 191 °C (dec.).

With `Nc1ccccc1NC(=O)c1ccc(CNC(=O)c2cc3ccncc3o2)cc1` [Example 39, N-(2-aminophenyl)-4-[N-(furo[2,3-c]pyridin-2-yl)carbonylaminomethyl]benzamide] the minimal effective concentration (A2780 cells) was 0.1 µM and the melting point was 210 °C (dec.).

For `O=C(Cc1cccnc1)NCc1ccc(C(=O)Nc2ccccc2O)cc1` [Example 42, N-(2-hydroxyphenyl)-4-[N-(pyridin-3-yl)acetylaminomethyl]benzamide], the minimal effective concentration (A2780 cells) was 10 µM and the melting point was 201 to 202 °C.

`Nc1ccccc1NC(=O)c1ccc(CNC(=O)OCc2ccc(-n3ccnc3)cc2)cc1` [Example 50, N-(2-aminophenyl)-4-[N-(4-(imidazol-1-yl)benzyl)oxycarbonylaminomethyl]benzamide] showed a minimal effective concentration (A2780 cells) of 1 µM and a melting point of 195 to 198 °C.

For `Nc1ccccc1NC(=O)c1ccc(CNC(=O)OCc2ccccn2)cc1` [Example 51, N-(2-aminophenyl)-4-[N-(pyridin-2-yl)methoxycarbonylaminomethyl]benzamide], the minimal effective concentration (A2780 cells) was 1 µM and the melting point was 166 to 167 °C.

In the case of `Nc1ccccc1NC(=O)c1ccc(CNC(=O)OCCc2ccccn2)cc1` [Example 52, N-(2-aminophenyl)-4-[N-[2-(pyridin-2-yl)ethoxycarbonyl]aminomethyl]benzamide], the minimal effective concentration (A2780 cells) is reported as 1 µM and the melting point is reported as 146 to 148 °C.

`Cc1cccc(COC(=O)NCc2ccc(C(=O)Nc3ccccc3N)cc2)n1` [Example 53, N-(2-aminophenyl)-4-[N-(6-methylpyridin-2-yl)methoxycarbonylaminomethyl]benzamide] gave a minimal effective concentration (A2780 cells) of 3 µM and a melting point of 138 °C.

For `Nc1ccccc1NC(=O)c1ccc(CNC(=O)OCCc2cccnc2)cc1` [Example 54, N-(2-aminophenyl)-4-[N-[2-(pyridin-3-yl)ethoxycarbonyl]aminomethyl]benzamide], the minimal effective concentration (A2780 cells) was 1 µM and the melting point was 120 to 125 °C.

`Nc1ccccc1NC(=O)c1ccc(CNC(=O)OCCCc2cccnc2)cc1` [Example 55, N-(2-aminophenyl)-4-[N-[3-(pyridin-3-yl)propyloxycarbonyl]aminomethyl]benzamide] showed a minimal effective concentration (A2780 cells) of 1 µM and a melting point of 121 to 124 °C.

For `Cc1ncccc1COC(=O)NCc1ccc(C(=O)Nc2ccccc2N)cc1` [Example 56, N-(2-aminophenyl)-4-[N-(2-methylpyridin-3-yl)methoxycarbonylaminomethyl]benzamide], the minimal effective concentration (A2780 cells) was 3 µM and the melting point was 164 to 165 °C.

Work on `Cc1ccc(COC(=O)NCc2ccc(C(=O)Nc3ccccc3N)cc2)cn1` [Example 57, N-(2-aminophenyl)-4-[N-(6-methylpyridin-3-yl)methoxycarbonylaminomethyl]benzamide] yielded a minimal effective concentration (A2780 cells) of 3 µM and a melting point of 164 to 165 °C.

`Nc1ccccc1NC(=O)c1ccc(CNC(=O)OCc2ccc(Cl)nc2)cc1` [Example 59, N-(2-aminophenyl)-4-[N-(6-chloropyridin-3-yl)methoxycarbonylaminomethyl]benzamide] gave a minimal effective concentration (A2780 cells) of 3 µM and a melting point of 180 to 185 °C.

Work on `Nc1ccccc1NC(=O)c1ccc(CNC(=O)OCc2ccncc2)cc1` [Example 60, N-(2-aminophenyl)-4-[N-(pyridin-4-yl)methoxycarbonylaminomethyl]benzamide] yielded a minimal effective concentration (A2780 cells) of 3 µM and a melting point of 180 to 183 °C.

With `Nc1ccccc1NC(=O)c1ccc(CNC(=O)OCc2cncs2)cc1` [Example 63, N-(2-aminophenyl)-4-[N-(thiazol-5-yl)methoxycarbonylaminomethyl]benzamide] the minimal effective concentration (A2780 cells) was 3 µM and the melting point was 168 to 175 °C.

With `CN1CCCC(COC(=O)NCc2ccc(C(=O)Nc3ccccc3N)cc2)C1` (stereo not drawn) [Example 65, N-(2-aminophenyl)-4-[N-(1-methylpiperidin-3-yl)methoxycarbonylaminomethyl]benzamide] the minimal effective concentration (A2780 cells) was 3 µM and the melting point was 130 to 135 °C.

In the case of `Nc1ccccc1NC(=O)c1ccc(CNC(=O)Oc2ccccc2)cc1` [Example 68, N-(2-aminophenyl)-4-[N-(phenoxycarbonyl)aminomethyl]benzamide], the minimal effective concentration (A2780 cells) is reported as 3 µM and the melting point is reported as 174 to 175 °C.

In the case of `Nc1ccccc1COC(=O)NCc1ccc(C(=O)Nc2ccccc2N)cc1` [Example 71, N-(2-aminophenyl)-4-[N-(2-aminophenyl)methoxycarbonylaminomethyl]benzamide], the minimal effective concentration (A2780 cells) is reported as 10 µM and the melting point is reported as 149 to 151 °C (dec.).

With `Nc1cccc(COC(=O)NCc2ccc(C(=O)Nc3ccccc3N)cc2)c1` [Example 73, N-(2-aminophenyl)-4-[N-(3-aminophenyl)methoxycarbonylaminomethyl]benzamide] the minimal effective concentration (A2780 cells) was 3 µM and the melting point was 149 to 153 °C (dec.).

In the case of `Cn1cncc1COC(=O)NCc1ccc(C(=O)Nc2ccccc2N)cc1` [Example 74, N-(2-aminophenyl)-4-[N-(1-methylimidazol-5-yl)methoxycarbonylaminomethyl]benzamide], the minimal effective concentration (A2780 cells) is reported as 10 µM and the melting point is reported as 162 to 165 °C (dec.).

`COc1cncc(COC(=O)NCc2ccc(C(=O)Nc3ccccc3N)cc2)c1` [Example 76, N-(2-aminophenyl)-4-[N-(5-methoxypyridin-3-yl)methoxycarbonylaminomethyl]benzamide] gave a minimal effective concentration (A2780 cells) of 1 µM and a melting point of 169 to 170 °C.

`Nc1ccccc1NC(=O)c1ccc(CNC(=O)OCc2cnccn2)cc1` [Example 77, N-(2-aminophenyl)-4-[N-(pyrazin-2-yl)methoxycarbonylaminomethyl]benzamide] gave a minimal effective concentration (A2780 cells) of 3 µM and a melting point of 182 °C.

`COc1ccc(O)c(NC(=O)c2ccc(CNC(=O)OCc3cccnc3)cc2)c1` [Example 85, N-(2-hydroxy-5-methoxyphenyl)-4-[N-(pyridin-3-yl)methoxycarbonylaminomethyl]benzamide] showed a minimal effective concentration (A2780 cells) of 3 µM and a melting point of 175 to 176 °C.

With `Nc1ccccc1NC(=O)c1ccc(CNC(=S)OCc2cccnc2)cc1` [Example 88, N-(2-aminophenyl)-4-[N-(pyridin-3-yl)methoxythiocarbonylaminomethyl]benzamide] the minimal effective concentration (A2780 cells) was 0.1 µM and the melting point was 154 to 156 °C (dec.).

With `Nc1ccccc1NC(=O)c1ccc(CCC(=O)NCc2cccnc2)cc1` [Example 97, N-(2-aminophenyl)-4-[2-[N-(3-picolyl)aminocarbonyl]ethyl]benzamide] the minimal effective concentration (A2780 cells) was 0.1 µM and the melting point was 168 to 170 °C.

`Nc1ccccc1NC(=O)c1ccc(COC(=O)NCc2cccnc2)cc1` [Example 98, N-(2-aminophenyl)-4-[(pyridin-3-yl)methylaminocarbonyloxymethyl]benzamide] gave a minimal effective concentration (A2780 cells) of 0.1 µM and a melting point of 139 to 141 °C.

Reference: patent publication US7317028B2, “Cell differentiation inducer” (Schering Aktiengesellschaft, priority 1996, dated 2008)
